PubChem BioAssay AID1259407 (Chemical Carcinogenesis Research Information System (CCRIS), 2018)
Active and inactive are the calls of the source. How the calls were made is not given here.

System: CCRIS mutagenicity, Ames/micronucleus/aberration tests
Test: CCRIS mutagenicity studies
Settings: Test System: AMES SALMONELLA TYPHIMURIUM; Strain/Indicator: TA100; Metabolic Activation: RAT, LIVER, S-9, SODIUM PHENOBARBITAL AND BETA-NAPHTHOFLAVONE; Method: PREINCUBATION

C/C=C1/C[C@@H](C)[C@](O)(CO)C(=O)OCC2=CC[N+]3([O-])CC[C@@H](OC1=O)[C@@H]23 (stereo partly specified)
mutagenic call: inactive; negative
